For 19 compounds, IC50 results are on record in ChEMBL document CHEMBL3600348, “Synthesis of novel derivatives of oxindole, their urease inhibition and molecular docking studies” (Bioorg Med Chem Lett, 2015).

The target of this assay is Urease (Canavalia ensiformis, UniProt P07374). Briefly: Inhibition of jack bean urease using urea as substrate assessed as ammonia production after 15 mins by Weatherburn assay.
Chain of Urease (P07374 whole entry): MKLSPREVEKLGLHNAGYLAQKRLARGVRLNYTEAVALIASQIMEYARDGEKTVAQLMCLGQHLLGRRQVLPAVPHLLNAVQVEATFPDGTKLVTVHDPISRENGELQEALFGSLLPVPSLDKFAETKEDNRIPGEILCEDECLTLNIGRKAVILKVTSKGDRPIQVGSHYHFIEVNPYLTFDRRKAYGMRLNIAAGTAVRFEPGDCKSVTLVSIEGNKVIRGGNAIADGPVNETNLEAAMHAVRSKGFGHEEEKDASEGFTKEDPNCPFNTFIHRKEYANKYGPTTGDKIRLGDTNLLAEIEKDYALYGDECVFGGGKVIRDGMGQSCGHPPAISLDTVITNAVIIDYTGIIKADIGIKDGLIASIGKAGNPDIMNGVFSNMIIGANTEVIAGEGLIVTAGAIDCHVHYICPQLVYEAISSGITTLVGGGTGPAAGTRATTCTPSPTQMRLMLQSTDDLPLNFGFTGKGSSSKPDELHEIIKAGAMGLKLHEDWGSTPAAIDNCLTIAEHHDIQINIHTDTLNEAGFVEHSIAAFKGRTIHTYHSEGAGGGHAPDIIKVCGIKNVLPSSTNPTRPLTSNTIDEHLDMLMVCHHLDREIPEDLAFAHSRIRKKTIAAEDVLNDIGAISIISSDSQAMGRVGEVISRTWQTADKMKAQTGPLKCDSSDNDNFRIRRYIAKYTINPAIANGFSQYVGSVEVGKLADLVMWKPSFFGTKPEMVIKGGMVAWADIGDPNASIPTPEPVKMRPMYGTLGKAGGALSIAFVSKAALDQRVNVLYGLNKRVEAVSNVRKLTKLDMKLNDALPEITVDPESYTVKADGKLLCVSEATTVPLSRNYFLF
In the case of `O=C1Nc2ccc(Cl)cc2/C1=C\c1ccc(C(=O)N/N=C/c2c(O)cc(O)cc2O)cc1`, the IC50 turned out to be 13 µM.

As to `C/C(=N\NC(=O)c1ccc(/C=C2/C(=O)Nc3ccc(Cl)cc32)cc1)c1c(O)cc(O)cc1O`, the IC50 was 35.4 µM.

As for `O=C1Nc2ccc(Cl)cc2/C1=C\c1ccc(C(=O)N/N=C/c2ccc(O)cc2O)cc1`, the IC50 turned out to be 42.9 µM.

In the case of `O=C1Nc2ccc(Cl)cc2/C1=C\c1ccc(C(=O)N/N=C/c2cc(O)ccc2O)cc1`, the IC50 came to 53.2 µM.

On to `O=C1Nc2ccc(Cl)cc2/C1=C\c1ccc(C(=O)N/N=C/c2cc(O)c(O)cc2O)cc1`, for which the IC50 came out at 126 µM.

Turning to `O=C1Nc2ccc(Cl)cc2/C1=C\c1ccc(C(=O)N/N=C/c2ccc(O)c(O)c2)cc1`, the IC50 is 70.8 µM.

As to `O=C1Nc2ccc(Cl)cc2/C1=C\c1ccc(C(=O)N/N=C/c2cc(O)cc(O)c2)cc1`, the IC50 stood at 19.2 µM.

As for `O=C1Nc2ccc(Cl)cc2/C1=C\c1ccc(C(=O)N/N=C/c2cccc(O)c2O)cc1`, the IC50 amounted to 109 µM.

`O=C1Nc2ccc(Cl)cc2/C1=C\c1ccc(C(=O)N/N=C/c2cccc(O)c2)cc1`: the IC50 was found to be 102 µM.

`O=C1Nc2ccc(Cl)cc2/C1=C\c1ccc(C(=O)N/N=C/c2ccc(O)cc2)cc1`: the half-inhibitory concentration (IC50) is 84.8 µM.

As to `O=C1Nc2ccc(Cl)cc2/C1=C\c1ccc(C(=O)N/N=C/c2ccccc2O)cc1`, the half-inhibitory concentration (IC50) came out at 120 µM.

Consider `COc1ccc(/C=N/NC(=O)c2ccc(/C=C3/C(=O)Nc4ccc(Cl)cc43)cc2)cc1`, for which the IC50 came to 144 µM.

Consider `O=C1Nc2ccc(Cl)cc2/C1=C\c1ccc(C(=O)N/N=C/c2ccc(Cl)cc2)cc1`, for which the concentration for half-maximal inhibition (IC50) turned out to be 111 µM.

As to `C/C(=N\NC(=O)c1ccc(/C=C2/C(=O)Nc3ccc(Cl)cc32)cc1)c1ccccc1O`, the IC50 stood at 71.8 µM.

Turning to `COc1ccc(/C=N/NC(=O)c2ccc(/C=C3/C(=O)Nc4ccc(Cl)cc43)cc2)c(O)c1`, the IC50 was found to be 145 µM.

In the case of `COc1ccc(O)c(/C=N/NC(=O)c2ccc(/C=C3/C(=O)Nc4ccc(Cl)cc43)cc2)c1`, the IC50 amounted to 82 µM.

As to `O=C1Nc2ccc(Cl)cc2/C1=C\c1ccc(C(=O)N/N=C/c2ccc([N+](=O)[O-])cc2)cc1`, the IC50 is 92.4 µM.

With `O=C1Nc2ccc(Cl)cc2/C1=C\c1ccc(C(=O)N/N=C/c2cccc([N+](=O)[O-])c2)cc1`, the IC50 came to 148 µM.

Take `CC(=O)NO` [ACETOHYDROXAMIC ACID]: the IC50 is 42 µM.
